Laboratory results as given in article PMC9409992, “Immunosuppressive Cytochalasins from the Mangrove Endophytic Fungus Phomopsis asparagi DHS-48” (Marine Drugs, 2022).
Where two headings read alike, the source gives them in different places.

Columns and labels:
[1] = system: ConA-induced T murine splenic lymphocytes; assay: ConA-induced T-cell (splenic lymphocyte) proliferation, CCK-8; assay type: cell-based, BALB/c mice; conditions: Mus musculus, 48 h, read-out: IC50 ConA-Induced T-Cell Proliferation
Method: (§1) The isolated compounds (1–8) were evaluated for their immunosuppressive activities against the proliferation of ConA-induced T and LPS-induced B murine splenic lymphocytes, according to previously described protocols. […] The cytotoxicity of immunosuppressive Compounds 2 and 4–6 was tested in murine splenocyte cultures for 72 h using the tetrazolium salt-based CCK-8 assay. […] Thus, we selected this particular cytochalasin for the mechanism of action studies.
(§2) Spleen cells were collected from BALB/c mice under aseptic conditions, plated in a 96-well plate at a density of 1.5 × 10^6 cells/well and activated by Con A (5 μg/mL) or LPS (10 μg/mL) in the presence of various concentrations of compounds or cyclosporine A (CsA) at 37 °C and 5% CO2 for 48 h. Then, 20 μL CCK-8 was added to each well, 4 h before the end of the incubation. Absorbance at OD450 was measured on an ELISA reader, and the IC50 value was calculated from the correlation curve between the compound concentration and the OD450.

[2] = system: LPS-induced B murine splenic lymphocytes; assay: LPS-induced B-cell (splenic lymphocyte) proliferation, CCK-8; assay type: cell-based, BALB/c mice; conditions: Mus musculus, 48 h, read-out: IC50 LPS-Induced B-Cell Proliferation
Method: as §1, §2

[3] = Cytotoxicity / cell viability in normal splenocytes, CCK-8, 72 h; assay type: cell-based, BALB/c mice; conditions: BALB/c, mouse, mean ± SD (n = 7), read-out: Cytotoxicity IC50, murine splenocytes
Method: as §1
(§3) Cell viability was evaluated using the CCK-8 method. Spleen cells were plated in a 96-well plate at a density of 1.5 × 10^6 cells/well. Then, the cells were incubated with various concentrations of compounds or 0.1% DMSO at 37 °C and 5% CO2 for 72 h. Proliferation was measured using the CCK-8 assay, as described above. Cyclosporin A (CsA) and cytochalasin D were used as positive controls.

calcineurin (CN) = calcineurin (CN) (Homo sapiens, UniProt P63098+Q08209); assay: CN phosphatase assay (p-NPP substrate, spectrophotometric); assay type: biochemical; conditions: 20 mM p-NPP substrate, pH 7.4; read-out: IC50 calcineurin (CN) inhibition
Method: A spectrophotometric assay was used to determine the activities of CN with 20 mM p-nitrophenyl phosphate (p-NPP) as the substrate in 1 mM CaCl2, 0.5 mM MnCl2, 2 mM CaM, 2 mM CNB, 1 mM DTT, 0.1 mg/mL bovine serum albumin (BSA), and 50 mM Tris-HCl (pH 7.4) at 4 °C. The reaction was initiated by the addition of CNA, various concentrations of compounds (6.25, 12.5, 25, 50 or 100 μM) were added, and the solution was preincubated for 10 min at 4 °C. The OD410 value was measured, and the inhibitory concentration (IC50) was calculated. DMSO (2%) was used as a vehicle control. CsA was used as a positive control.

NFAT1 dephosphorylation = assay: Western blot of ConA-stimulated NFAT1 / NFAT-P in splenocytes; assay type: cell-based, BALB/c mice; conditions: 50 μM
Method: (§4) The effect of 2 on ConA-stimulated NFAT1 and NFAT-P expression was determined by Western blotting. […] In contrast, in the ConA-stimulated cells in the absence of 2, the dephosphorylated form of NFAT1 was detected, as well as the phosphorylated form. […] After 48 h of stimulation with 5 μg/mL Con A, the fluorescent NFAT1 translocated to the nucleus. […] In addition, 2 formed hydrophobic interactions with residues ILE-436, ILE-474, ARG-477, VAL-490, and VAL-498 and intermolecular interactions with residues THR-126, GLN-127, ASP-313, and PRO-340. Therefore, the immunosuppressive activity of 2 is possibly, at least in part, mediated via CaN/NFAT signaling pathway-regulated Con A-stimulated activation of splenocytes (Figure 7), highlighting its potential for use as an effective noncytotoxic natural immunosuppressant.
Splenocytes were washed with PBS and lysed in PMSF lysate. After centrifugation at 12,000 rpm for 5 min, the protein concentration was determined using a BSA Protein Assay Kit. Protein lysates were separated using 10% sodium dodecyl sulfate–polyacrylamide gel electrophoresis (SDS–PAGE) and transferred to polyvinylidene difluoride (PVDF) membranes. After blocking, the membranes were incubated overnight with the respective primary antibodies against NFAT1, NFAT-P, and β-actin in 5% BSA, and the secondary antibody was horseradish peroxidase (HRP)-conjugated goat anti-rabbit IgG. […]

NFAT1 translocation = assay: Immunofluorescence of NFAT1 nuclear translocation in ConA-stimulated splenocytes; assay type: cell-based, BALB/c mice; conditions: Con A 5 μg/mL, 48 h
Method: as §4
Splenocytes were seeded in a 24-well plate at a density of 5 × 10^6 cells/well, incubated with various concentrations of Compound 2 or CsA, and then activated by culturing with Con A (5 μg/mL) for 48 h. After treatment, the cells were fixed with 4% paraformaldehyde for 30 min, permeabilized in 0.5% Triton X-100 for 15 min, blocked with 5% BSA for 1 h, and then incubated overnight in the respective primary antibody; NFAT1 (D43B1) XP® Rabbit antibody was used at a 1:100 dilution in PBS. The corresponding fluorescent anti-rabbit IgG (H+L) secondary antibody was added for 1 h. […]

IL-2 mRNA = IL-2 mRNA expression by real-time quantitative PCR in ConA-stimulated splenocytes; assay type: cell-based, BALB/c mice; conditions: q-PCR, 48 h
Method: as §4
The obtained total RNA (2 µg) was used for cDNA synthesis with a Servicebio®RT First Strand cDNA Synthesis Kit with random primers, according to the manufacturer’s instructions. qPCR was performed ith SYBR Green qPCR Master Mix (High ROX) using ABI StepOne Plus Real-time Detection System and β-actin as internal control. […] The expression levels of genes were normalized to the expression of β-actin mRNA and analyzed using the delta-delta CT method (2^−ΔΔCT).

IL-2 = IL-2 ELISA of culture supernatants of ConA-stimulated splenocytes; assay type: cell-based, BALB/c mice
Method: as §4
Splenocytes were treated as described in the RT–qPCR section, and then the IL-2 levels in the obtained culture supernatants were measured using an enzyme-linked immunosorbent assay (ELISA) kit, according to the manufacturer’s instructions. Cytokine standard curves were used to calculate the amount of IL-2, and the absorbance of each well was read at OD450 using an ELISA reader.

murine splenocytes = assay: Cytotoxicity / cell viability in normal splenocytes, CCK-8, 72 h; assay type: cell-based, BALB/c mice; conditions: mean ± SD (n = 7)
Method: as §1, §3

Sequence of calcineurin (CN) (P63098 whole entry, other chains not shown): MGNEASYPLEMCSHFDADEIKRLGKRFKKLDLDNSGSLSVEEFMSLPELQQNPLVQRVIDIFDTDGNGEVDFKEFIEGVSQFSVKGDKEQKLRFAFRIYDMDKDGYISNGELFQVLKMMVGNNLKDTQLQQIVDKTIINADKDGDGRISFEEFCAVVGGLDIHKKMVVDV

Row | Compound | IC50 [1] | IC50 [2] | IC50 at 72 h [3] | other results
1 | C=C1C(C)C2C(Cc3ccccc3)NC(=O)C23C(O)C2C=C(C)CC(C)CC4OC1C3C42 (stereo not drawn) [Compound 1, Phomoparagin A] | > 200 µM | > 200 µM |  | 
2 | C=C1C(C)C2C(Cc3ccccc3)NC(=O)C23C(OC(C)=O)C2C=C(C)CC(C)CC(O)C2C3C1O (stereo not drawn) [Compound 2, Phomoparagin B] | 21.6 ± 1.7 µM | 78.5 ± 1.3 µM | 111.7 ± 1.1 µM | IC50 (calcineurin (CN)): 17.9 ± 0.4 µM; Effect on ConA-stimulated dephosphorylation of NFAT (NFAT1 dephosphorylation): strongly inhibited the dephosphorylation of NFAT; Effect on Con A-stimulated translocation of NFAT1 from cytoplasm to nucleus (NFAT1 translocation): blocked the Con A-stimulated translocation of NFAT1 from the cytoplasm to the nucleus in a dose-dependent manner; Transcription level of Con A-stimulated IL-2 mRNA (IL-2 mRNA): decreased with increasing concentrations of 2; IL-2 protein level (secretion) (IL-2): confirmed the effects of 2 at the IL-2 protein level
3 | C=C1C(C)C2C(Cc3ccccc3)NC(=O)C23C=C2C=C(C)CC(C)CC(O)C2C3C1O (stereo not drawn) [Compound 3, Phomoparagin C] | > 200 µM | > 200 µM |  | 
4 | C=C1C(C)C2C(Cc3ccccc3)NC(=O)C23C(O)C2C=C(C)CC(C)CC(O)C2C3C1O (stereo not drawn) [Compound 4, phomopchalasin A] | 32.8 ± 2.4 µM | 145 ± 2.2 µM | 373.7 ± 3.3 µM | 
5 | C=C1C(C)C2C(Cc3ccccc3)NC(=O)C23C(O)C(O)C2C(C)=CC(C)CC4OC1C3C42 (stereo not drawn) [Compound 5, phomopchalasin B] | 31.2 ± 2.5 µM | 154.4 ± 0.4 µM | 84.4 ± 0.3 µM | 
6 | C=C1C(C)C2C(Cc3ccccc3)NC(=O)C23C(OC(C)=O)C=CC(C)(O)CC(C)CC=CC3C1O (stereo not drawn) [Compound 6, cytochalasin H] | 11.2 ± 0.3 µM | 103 ± 1.1 µM | 42.2 ± 1.7 µM | IC50 (murine splenocytes): 42.2 ± 1.7 µM
7 | C=C1C(C)C2C(Cc3ccccc3)NC(=O)C23C(O)C=CC(C)(O)CC(C)CC=CC3C1O (stereo not drawn) [Compound 7, cytochalasin J] |  |  |  | IC50 ([1]; Con A 5 μg/mL, CCK-8, mean ± SD, three experiments): > 200 µM; IC50 ([2]; LPS 10 μg/mL, CCK-8, mean ± SD, three experiments): > 200 µM
8 | C=C1C(C)C2C(Cc3ccccc3)NC(=O)C23C(=O)C=CC(C)(O)CC(C)CC=CC3C1O (stereo not drawn) [Compound 8, fragiformin B] | > 200 µM | > 200 µM |  | 
9 | C=C1[C@@H](C)[C@H]2[C@H](Cc3ccccc3)NC(=O)[C@]23[C@H](OC(C)=O)/C=C/[C@@](C)(O)C(=O)[C@@H](C)C/C=C/[C@H]3[C@@H]1O [Cytochalasin D, cytochalasin D, reference compound] |  |  |  | IC50 [3]: 1 µM
